According to patent publication US8741859B2, “Fungicide composition for agriculture and horticulture and method for preventing plant diseases” (Ishihara Sangyo Kaisha, Ltd, priority 2008, dated 2014):

How the values were obtained:
Pythium spinosum = experiment: Inhibition test of mycelial growth against rice seedling blight (Pythium spinosum); type: cell-based; conditions: Globisporangium spinosum, 48 h, PDA plate, 2 days, 20° C., read-out: Inhibition Rate of Mycelial Growth against Pythium spinosum (%)
Procedure: Inhibition Test of Mycelial Growth Against Rice Seedling Blight (Pythium spinosum)
(§1) The strain to use for a test was precultured on a PSA plate for two days at 20° C. Then, the peripheral portion of the grown mycelia was cut out with a cork borer (4 mm in diameter) to put on PDA plate which was prepared to contain an active ingredient at a predetermined concentration by diluting. After culturing for two days at 20° C., a diameter of the mycelial colony was measured to obtain an inhibition rate of mycelial growth.
(§2) In addition, a theoretical value of the inhibition rate was calculated using Colby's formula and listed in parentheses of Table 1.

Pythium graminicola = experiment: Inhibition test of mycelial growth against turf Pythium blight (Pythium graminicola); type: cell-based
Procedure: as §1, §2
Inhibition Test of Mycelial Growth Against Turf Pythium Blight (Pythium graminicola)
The inhibition rate of mycelial growth was obtained by measuring mycelial growth in the same manner as Test Example 1. In addition, the mean mycelial growth of non-treated group was 46.5 mm.

## Cc1ccc(-c2c(Cl)nc(C#N)n2S(=O)(=O)N(C)C)cc1 [Cyazofamid, 4-chloro-2-cyano-1-dimethylsulfamoyl-5-(4-methylphenyl)imidazole]
Pythium spinosum; Cyazofamid 1.0 ppm alone (polyoxin 0 ppm)
  inhibition at 1 ppm: 68%
Pythium spinosum; Cyazofamid 10.0 ppm alone (polyoxin 0 ppm)
  inhibition at 10 ppm: 54%
Pythium graminicola; Cyazofamid 1 ppm alone (agent 0 ppm)
  Inhibition Rate of Mycelial Growth (%): 48%
Pythium graminicola; Cyazofamid 10 ppm alone (agent 0 ppm)
  Inhibition Rate of Mycelial Growth (%): 47%
Pythium graminicola; Cyazofamid 100 ppm alone (agent 0 ppm)
  Inhibition Rate of Mycelial Growth (%): 68%
